Results published in patent US10017516B2, “BMP inhibitors and methods of use thereof” (The Brigham and Women's Hospital, Inc., priority 2013, dated 2018).
Values belong to the compound of their own block, whether it stands above or below them.

What was measured:
[1] = In vitro metabolism in human liver microsomes and cytosols; assay type: in vitro ADME
human ALK2 = human ALK2 (Homo sapiens (Human), UniProt Q04771); assay: LANCE Ultra ULight enzymatic assay, ALK2; assay type: biochemical; settings: 10 μM ATP
[2] = In vitro metabolism in mouse and human liver microsomes and cytosols; assay type: in vitro ADME; settings: for major metabolism in the presence of liver cytosol (aldehyde oxidase-mediated oxidation): 10 μM, 60 min, mouse and human; for glucuronide conjugates: with UDPGA

Sequence of human ALK2 (Q04771 21-509): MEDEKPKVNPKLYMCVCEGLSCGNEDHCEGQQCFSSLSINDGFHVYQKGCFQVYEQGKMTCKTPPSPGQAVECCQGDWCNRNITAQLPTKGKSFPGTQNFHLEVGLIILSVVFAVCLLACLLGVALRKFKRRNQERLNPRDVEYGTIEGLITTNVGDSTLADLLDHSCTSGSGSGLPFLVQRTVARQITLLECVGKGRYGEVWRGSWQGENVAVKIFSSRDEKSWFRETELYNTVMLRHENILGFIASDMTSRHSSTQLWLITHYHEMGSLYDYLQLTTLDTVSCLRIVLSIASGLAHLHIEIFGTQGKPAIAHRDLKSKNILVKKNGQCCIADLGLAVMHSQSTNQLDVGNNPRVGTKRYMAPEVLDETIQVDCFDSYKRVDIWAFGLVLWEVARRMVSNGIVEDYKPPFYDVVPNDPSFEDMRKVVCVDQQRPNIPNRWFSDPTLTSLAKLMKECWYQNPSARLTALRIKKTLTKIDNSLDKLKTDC

oxidative metabolites in incubation without NADPH (AO mediated metabolism) ([1]; 10 μM, 1 hr, HLM + human cytosol): Oxidative metabolites were not observed
cyanide adduct (KCN trapping) ([1]; KCN 1 mM): A major cyanide adduct was observed
glucuronide conjugates ([1]; UDPGA 4 mM): Glucuronide conjugates were not observed
aniline metabolites ([1]; human liver microsomal preparations): An aniline derivative was observed
Structure (SMILES): Cc1cc(-c2cnn3cc(-c4ccc(N5CCNCC5)nc4)cnc23)c2ccccc2n1 [compound 12, 2-methyl-4-(6-(6-(piperazin-1-yl)pyridin-3-yl)pyrazolo[1,5-a]pyrimidin-3-yl)quinoline]

IC50 (human ALK2): 0.085 µM
Structure (SMILES): Cc1ccc2c(-c3cnn4cc(-c5ccc(OCCN6CCCCC6)cn5)cnc34)cccc2n1 [Compound 48′, 2-methyl-5-(6-(5-(2-(piperidin-1-yl)ethoxy)pyridin-2-yl)pyrazolo[1,5-a]pyrimidin-3-yl)quinoline]

glucuronide conjugates [2]: not observed
Structure (SMILES): C[C@@H]1CNC[C@H](C)N1c1ccc(-c2cnc3c(-c4ccnc5ccccc45)cnn3c2)cc1 [compound 2, 4-(6-(4-((2R,6S)-2,6-dimethylpiperazin-1-yl)phenyl)pyrazolo[1,5-a]pyrimidin-3-yl)quinoline]
major metabolism in the presence of liver cytosol (aldehyde oxidase-mediated oxidation) [2]: oxidation of the alpha-carbon of quinoline nitrogen, leading to M450c

GSH trapping of soft electrophiles ([2]; GSH 2 mM): not observed
cyanide adducts (reactive intermediate trapping with KCN) ([2]; KCN 0.1 mM): not observed
glucuronide conjugates [2]: not observed
Structure (SMILES): c1ccc2c(-c3cnn4cc(-c5ccc(C6CCNCC6)cc5)cnc34)ccnc2c1 [Compound 48]
major metabolism in the presence of liver cytosol (aldehyde oxidase-mediated oxidation) [2]: metabolized mainly through the oxidation of the quinoline ring
